# Experimental data published in publication PMC4225490, “Crystal structure of the γ-hydroxymuconic semialdehyde dehydrogenase from Pseudomonas sp. strainWBC-3, a key enzyme involved in para-Nitrophenol degradation” (BMC Structural Biology, 2013).
# What was measured:
# [1] = target: T1, PnpE, γ-hydroxymuconic semialdehyde dehydrogenase (Pseudomonas sp. WBC-3, UniProt C1I208); test: X-ray crystal structure, […] Å; format: binding; settings: co-crystallised with 1 mM NAD, 0.1 M Bicine pH 8.5, 20% PEG10000, 20 °C; cofactor site
# T1 construct: recombinant His-tagged in E. coli BL21(DE3), pET29b NdeI/XhoI; Ni-NTA, Source-Q, Superdex-200; homodimer (four dimers per asymmetric unit)
# T1 sequence (C1I208 1-487): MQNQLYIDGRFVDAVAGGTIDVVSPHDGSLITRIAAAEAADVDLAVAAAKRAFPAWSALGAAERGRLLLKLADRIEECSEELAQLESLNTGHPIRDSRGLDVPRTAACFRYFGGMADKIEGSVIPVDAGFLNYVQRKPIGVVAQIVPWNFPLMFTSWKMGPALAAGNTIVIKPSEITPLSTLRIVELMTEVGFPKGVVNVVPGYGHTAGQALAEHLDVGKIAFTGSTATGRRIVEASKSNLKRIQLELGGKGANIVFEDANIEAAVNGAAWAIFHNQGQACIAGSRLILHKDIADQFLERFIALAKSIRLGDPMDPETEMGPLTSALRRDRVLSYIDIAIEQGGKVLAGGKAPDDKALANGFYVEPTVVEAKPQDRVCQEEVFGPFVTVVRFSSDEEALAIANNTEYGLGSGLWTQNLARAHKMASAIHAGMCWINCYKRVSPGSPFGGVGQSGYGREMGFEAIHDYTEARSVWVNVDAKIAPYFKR
# [2] = target: γ-hydroxymuconic semialdehyde dehydrogenase PnpE from Pseudomonas sp. strain WBC-3 (Pseudomonas sp. strain WBC-3); test: crystal structure; apo-PnpE, space group P21, 2.7 Å; eight monomers in the asymmetric unit; crystals grown from 20% PEG3350, 0.2 M KNO3 at 20°C
stoichiometry N [2],Compound,"X-ray crystal structure, 3.1 Å [1]"
,NC(=O)c1ccc[n+]([C@@H]2O[C@H](COP(=O)(O)OP(=O)(O)OC[C@H]3O[C@@H](n4cnc5c(N)ncnc54)[C@H](O)[C@@H]3O)[C@@H](O)[C@H]2O)c1 [NAD],"In the PnpE-NAD complex structure, NAD is situated in a cleft of PnpE."
2,γ-hydroxymuconic semialdehyde dehydrogenase PnpE from Pseudomonas sp. strain WBC-3 (enzyme),
